pIC50: −log10 of the molar value.
Legend:
Jak1 = molecular target: T1, Jak1 (Homo sapiens, UniProt P23458); assay: Jak1 biochemical assay (33P-ATP filter-binding, Reaction Biology Corp); details: for pIC50: biochemical kinase assay, 33P-ATP, filter-binding, read-out: Jak1 (range of IC50); for Jak1 inhibition, statement in words: biochemical assays, Jak1 versus Jak2
T1 construct: Reaction Biology Corp (performed the assay)
Procedure: (§1) Example B1: Jak1, 2, 3, Tyk2 Biochemical Assays
(§2) Assays were performed by Reaction Biology Corp, Malvern, Pa. The procedure is briefly described below.
(§3) Base Reaction buffer; 20 mM Hepes (pH 7.5), 10 mM MgCl2, 1 mM EGTA, 0.02% Brij35, 0.02 mg/ml BSA, 0.1 mM Na3VO4, 2 mM DTT, 1% DMSO. Required cofactors are added individually to each kinase reaction
(§4) 1. Prepare indicated substrate in freshly prepared Base Reaction Buffer
(§5) 2. Deliver any required cofactors to the substrate solution above
(§6) 3. Deliver indicated kinase into the substrate solution and gently mix
(§7) 4. Deliver compounds in DMSO into the kinase reaction mixture by Acoustic technology (Echo550; nanoliter range), incubate for 20 minutes at room temperature
(§8) 5. Deliver ^33P-ATP (specific activity 10 μCi/μl) into the reaction mixture to initiate the reaction.
(§9) 6. Incubate kinase reaction for 2 hours at room temperature
(§10) 7. Reactions are spotted onto P81 ion exchange paper
(§11) 8. Detect kinase activity by filter-binding method.

Jak2 = molecular target: T2, Jak2 (Homo sapiens, UniProt O60674); assay: Jak2 biochemical assay (33P-ATP filter-binding, Reaction Biology Corp); details: biochemical kinase assay, read-out: Jak2 (range of IC50)
T2 construct: Reaction Biology Corp (performed the assay)
T2 sequence (O60674 whole entry): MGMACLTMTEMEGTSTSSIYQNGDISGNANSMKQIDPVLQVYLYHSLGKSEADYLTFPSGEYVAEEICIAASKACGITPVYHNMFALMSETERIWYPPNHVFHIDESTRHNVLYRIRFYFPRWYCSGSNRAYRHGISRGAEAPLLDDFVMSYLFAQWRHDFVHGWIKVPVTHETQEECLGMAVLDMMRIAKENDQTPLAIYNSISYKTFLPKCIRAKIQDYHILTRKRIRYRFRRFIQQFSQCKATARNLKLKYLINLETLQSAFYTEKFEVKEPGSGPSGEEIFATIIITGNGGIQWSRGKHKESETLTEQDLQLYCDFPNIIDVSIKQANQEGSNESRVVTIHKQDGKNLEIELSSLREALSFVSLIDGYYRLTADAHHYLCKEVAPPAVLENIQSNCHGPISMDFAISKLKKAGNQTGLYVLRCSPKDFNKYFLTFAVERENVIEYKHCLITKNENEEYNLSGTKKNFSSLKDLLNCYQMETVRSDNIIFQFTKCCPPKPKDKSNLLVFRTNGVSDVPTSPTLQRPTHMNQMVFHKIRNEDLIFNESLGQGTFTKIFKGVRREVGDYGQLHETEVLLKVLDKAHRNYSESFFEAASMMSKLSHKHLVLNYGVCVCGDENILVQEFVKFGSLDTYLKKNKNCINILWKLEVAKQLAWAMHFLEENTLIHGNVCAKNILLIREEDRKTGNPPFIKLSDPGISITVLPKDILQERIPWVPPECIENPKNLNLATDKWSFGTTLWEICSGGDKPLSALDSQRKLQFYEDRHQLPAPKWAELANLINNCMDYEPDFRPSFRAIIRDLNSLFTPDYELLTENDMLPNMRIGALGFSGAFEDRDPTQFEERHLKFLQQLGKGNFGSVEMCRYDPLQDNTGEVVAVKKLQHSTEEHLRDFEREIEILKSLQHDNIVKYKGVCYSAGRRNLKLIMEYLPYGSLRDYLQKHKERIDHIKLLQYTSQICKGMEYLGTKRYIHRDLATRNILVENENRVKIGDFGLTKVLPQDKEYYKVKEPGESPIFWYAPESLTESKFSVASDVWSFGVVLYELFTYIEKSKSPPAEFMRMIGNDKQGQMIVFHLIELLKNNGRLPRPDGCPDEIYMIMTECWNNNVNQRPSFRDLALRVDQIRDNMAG
Procedure: as §1, §2, §3, §4, §5, §6, §7, §8, §9, §10, §11

[1] = system: IL-6 induced STAT3 phosphorylation; assay: Human whole blood p-STAT3 assay, IL-6 stimulation; type: cell-based; details: for pIC50: 0.25 h, IL-6 100 ng/ml 15 min, pSTAT3 ELISA, read-out: IL-6 (range of IC50, induced STAT3 phosphorylation); for Inhibition of IL-6 induced STAT3 phosphorylation, statement in words: versus TPO induced
Procedure: (§12) Example B2: Human Whole Blood p-STAT3 Assay
(§13) 1. Whole blood samples from human donors
2. IL-6 (R&D systems; Cat #206-IL)
(§14) 5. ELISA kit for pSTAT3 (Invitrogen; Cat # KH00481)
(§15) 1. 150 μl heparinized blood sample/tube.
(§16) 2. Compounds at various concentrations is added to the blood, incubate for 10 min at RT (10 doses, 2 replicates for each compound).
(§17) 3. Add IL-6 (final concentration: 100 ng/ml) or TPO (final conc: 50 ng/ml) to the blood for 15 min.
(§18) 4. After the stimulation, add 0.6 mL RBC lysis buffer (Qiagen 79217) and mix and rock for 1-2 minutes at room temperature before centrifugation to remove lyzed RBCs. This step may be repeated once if RBCs are not lyzed completely. Harvest the WBCs.
(§19) 5. Add 200 μl cell lysis buffer, ice 30 min.
(§20) 7. Transfer the supernatant to a new tube as cell lysate.
(§21) 8. Run ELISA procedure according to the product instruction of ELIA kit.

[2] = system: TPO induced STAT3 phosphorylation; assay: Human whole blood p-STAT3 assay, TPO stimulation; type: cell-based; details: for pIC50: 0.25 h, TPO 50 ng/ml 15 min, pSTAT3 ELISA, read-out: TPO (range of IC50, induced STAT3 phosphorylation)
Procedure: as §12, §13
3. Thrombopoietin (TPO; R&D systems; Cat #288-TP)
as §14, §15, §16, §17, §18, §19, §20, §21

T1 sequence (P23458 whole entry): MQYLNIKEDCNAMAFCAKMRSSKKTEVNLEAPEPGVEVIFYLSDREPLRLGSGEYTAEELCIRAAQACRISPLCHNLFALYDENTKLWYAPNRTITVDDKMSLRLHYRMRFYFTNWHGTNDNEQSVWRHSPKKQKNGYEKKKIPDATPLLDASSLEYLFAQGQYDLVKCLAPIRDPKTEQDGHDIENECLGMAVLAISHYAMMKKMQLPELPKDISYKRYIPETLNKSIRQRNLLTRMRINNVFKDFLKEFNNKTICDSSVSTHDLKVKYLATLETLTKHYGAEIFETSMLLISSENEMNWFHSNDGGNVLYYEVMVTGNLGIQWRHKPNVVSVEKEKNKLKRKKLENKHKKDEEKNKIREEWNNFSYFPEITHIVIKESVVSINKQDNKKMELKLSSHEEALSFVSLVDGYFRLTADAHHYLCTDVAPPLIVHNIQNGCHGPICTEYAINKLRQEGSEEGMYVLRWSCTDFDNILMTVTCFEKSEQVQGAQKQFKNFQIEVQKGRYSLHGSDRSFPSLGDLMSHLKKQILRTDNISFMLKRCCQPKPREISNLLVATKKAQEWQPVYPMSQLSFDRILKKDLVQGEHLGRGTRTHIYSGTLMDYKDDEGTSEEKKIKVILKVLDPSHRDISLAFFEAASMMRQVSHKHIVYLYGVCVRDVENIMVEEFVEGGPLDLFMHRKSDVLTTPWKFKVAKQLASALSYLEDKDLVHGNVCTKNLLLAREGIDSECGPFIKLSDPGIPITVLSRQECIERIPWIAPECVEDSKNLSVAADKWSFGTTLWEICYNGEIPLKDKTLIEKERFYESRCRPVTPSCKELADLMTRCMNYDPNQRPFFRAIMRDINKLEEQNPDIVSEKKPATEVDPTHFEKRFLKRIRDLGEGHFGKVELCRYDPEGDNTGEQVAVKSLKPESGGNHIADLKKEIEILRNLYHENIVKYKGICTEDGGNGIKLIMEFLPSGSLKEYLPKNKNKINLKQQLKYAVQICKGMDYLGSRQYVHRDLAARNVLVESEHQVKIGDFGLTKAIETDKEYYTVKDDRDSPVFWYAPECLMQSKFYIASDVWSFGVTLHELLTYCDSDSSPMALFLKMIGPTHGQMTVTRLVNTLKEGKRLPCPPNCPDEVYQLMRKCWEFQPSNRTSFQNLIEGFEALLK

| Structure (SMILES) | pIC50 (Jak1) | pIC50 (Jak2) | pIC50 [1] | Inhibition of IL-6 induced STAT3 phosphorylation, statement in words [1] | Jak1 inhibition, statement in words (Jak1) | pIC50 [2] | Activity in the TPO induced STAT3 phosphorylation assay, statement in words [2] |
| --- | --- | --- | --- | --- | --- | --- | --- |
| C[C@@H](O)c1nc2cnc3ccoc3c2n1[C@H]1CC[C@H](C#N)CC1 [Example 1, trans-4-[2-[(R)-1-Hydroxyethyl]-1H-furo [3,2-b]imidazo [4,5-d]pyridin-1-yl] cyclohexanecarbonitrile] | 6.00 to 7.00 |  |  |  |  |  |  |
| N#C[C@H]1CC[C@H](n2c(CO)nc3cnc4ccoc4c32)CC1 [Example 2, trans-4-[2-(Hydroxymethyl)furo[3,2-b]imidazo[4,5-d]pyridin-1-yl]cyclohexanecarbonitrile] | 6.00 to 7.00 |  |  |  |  |  |  |
| C[C@@H](O)c1nc2cnc3ccoc3c2n1[C@H]1CC[C@H](CC#N)CC1 [Example 3, 2-[trans-4-[2-[(R)-1-Hydroxyethyl]furo[3,2-b]imidazo[4,5-d]pyridin-1-yl]cyclohexyl] acetonitrile] | > 8.00 | 6.00 to 7.00 | > 5.30 | selective inhibition of IL-6 induced STAT3 phosphorylation, but not TPO induced STAT3 phosphorylation | potent and selective Jak1 inhibitors | < 4.00 |  |
| C[C@@H](O)c1nc2cnc3ccoc3c2n1[C@H]1CC[C@H](CC#N)OC1 [Example 4, 2-[(2R,5S)-5-[2-[(R)-1-Hydroxyethyl]furo[3,2-b]imidazo[4,5-d]pyridin-1-yl]tetrahydropyran-2-yl] acetonitrile] | > 8.00 | 6.00 to 7.00 | > 5.30 | selective inhibition of IL-6 induced STAT3 phosphorylation, but not TPO induced STAT3 phosphorylation | potent and selective Jak1 inhibitors | < 4.00 |  |
| C[C@@H](O)c1nc2cnc3ccoc3c2n1C1CCN(C(=O)NCC(F)(F)F)C1 (stereo partly drawn) [Example 5, 3-[2-[(R)-1-Hydroxyethyl]-1H-furo[3,2-b]imidazo[4,5-d]pyridin-1-yl]-N-(2,2,2-trifluoroethyl)pyrrolidine-1-carboxamide] | < 6.00 | < 6.00 |  |  |  |  |  |
| C[C@@H](O)c1nc2cnc3ccoc3c2n1C1CCN(C(=O)NCC(F)(F)F)CC1 [Example 6, (R)-4-[2-(1-Hydroxyethyl)-1H-furo[3,2-b]imidazo[4,5-d]pyridin-1-yl]-N-(2,2,2-trifluoroethyl)piperidine-1-carboxamide] | < 6.00 | < 6.00 |  |  |  |  |  |
| N#CC[C@H]1CC[C@H](n2c(CO)nc3cnc4ccoc4c32)CO1 [Example 7, 2-[(2R,5S)-5-[2-(Hydroxymethyl)furo[3,2-b]imidazo[4,5-d]pyridin-1-yl]tetrahydropyran-2-yl] acetonitrile] | > 8.00 | 6.00 to 7.00 | > 5.30 | selective inhibition of IL-6 induced STAT3 phosphorylation, but not TPO induced STAT3 phosphorylation | potent and selective Jak1 inhibitors | < 4.00 |  |
| N#CC[C@@H]1CC[C@H](n2c(CO)nc3cnc4ccoc4c32)CO1 [Example 8, 2-[(2S,5S)-5-[2-(Hydroxymethyl)furo[3,2-b]imidazo[4,5-d]pyridin-1-yl]tetrahydropyran-2-yl] acetonitrile] | 6.00 to 7.00 | < 6.00 |  |  |  |  |  |
| CCc1nc2cnc3ccoc3c2n1[C@H]1CC[C@H](CC#N)OC1 [Example 9, 2-[(2R,5S)-5-[2-Ethylfuro[3,2-b]imidazo[4,5-d]pyridin-1-yl]tetrahydropyran-2-yl] acetonitrile] | > 8.00 | 6.00 to 7.00 |  |  | potent and selective Jak1 inhibitors |  |  |
| Cc1nc2cnc3ccoc3c2n1[C@H]1CC[C@H](CC#N)OC1 [Example 11, 2-[(2R,5S)-5-[2-Methylfuro [3,2-b]imidazo [4,5-d]pyridin-1-yl]tetrahydropyran-2-yl] acetonitrile] | > 8.00 | 7.00 to 8.00 | > 5.30 |  |  | 4.00 to 4.70 | some activity |

Source: patent USRE50799E1, “JAK1 selective inhibitors and uses thereof” (Hangzhou HighlightII Pharmaceutical Co., Ltd, priority 2016, dated 2026)
